In patent US20030027799A1, “Methods of treating cancer using a combination of drugs” (priority 2001, published 2003):

Experiments:
[1] = Dose escalation study of β-L-OddC and cisplatin in cancer patients: dose limiting toxicity, maximum tolerated dose; assay type: in vivo; conditions: β-L-OddC in combination with cisplatin 50 mg/m^2, administered every four weeks
Excerpt: The patients selected were adult patients with solid tumours that were refractory to standard therapies. […] They had adequate bone marrow, renal and hepatic function. There were 33 patients treated. Sixteen were male patients and seventeen were female. Twenty patients had colorectal cancer. Two patients had melanoma. One patient each had gastric cancer, islet cell cancer of the pancreas, non-small lung cancer (NSCLC), renal cancer, cervical cancer, breast cancer, ovarian cancer, squamous cell cancer of the pelvis, liver cancer, abdominal cancer and penile cancer. […] The terms LP and HP refer to lightly pre-treated and heavily pre-treated patient status. The term DLT refers to Dose limiting Toxicity.

[2] = system: various forms of cancers (e.g. solid tumours, adult leukemia and lymphomas); conditions: Weitman 2000, Giles 2001, Gourdeau 2001; cited from earlier work

## Nc1ccn([C@@H]2CO[C@H](CO)O2)c(=O)n1 [β-L-OddC, (−)-β-L-Dioxolane-Cytidine]
[1]
  recommended dose for heavily pre-treated patients: 4.8 mg/m^2
[2]
  activity in the treatment of various forms of cancers: potent activity
